{
  "source": "BindingDB's records for doi:10.1021/acs.jmedchem.8b00931",
  "about": "(Umr 7273 Cnrs, 2018)",
  "key": {"[1]": {"test": "Inhibition of Rhinovirus B14 capsid infected in human HeLa Rh cells assessed as reduction in virus-induced cytopathic effect after 3 days by MTS assay"}, "[2]": {"test": "Inhibition of Rhinovirus B70 capsid infected in human HeLa Rh cells assessed as reduction in virus-induced cytopathic effect after 3 days by MTS assay"}, "[3]": {"test": "Inhibition of Rhinovirus A02 capsid infected in human HeLa Rh cells assessed as reduction in virus-induced cytopathic effect after 3 days by MTS assay"}, "[4]": {"test": "Inhibition of Rhinovirus A28 capsid infected in human HeLa Rh cells assessed as reduction in virus-induced cytopathic effect after 3 days by MTS assay"}, "[5]": {"test": "Inhibition of Rhinovirus A08 capsid infected in human HeLa Rh cells assessed as reduction in virus-induced cytopathic effect after 3 days by MTS assay"}, "[6]": {"test": "Inhibition of Rhinovirus A89 capsid infected in human HeLa Rh cells assessed as reduction in virus-induced cytopathic effect after 3 days by MTS assay"}, "[7]": {"test": "Inhibition of Rhinovirus A85 capsid infected in human HeLa Rh cells assessed as reduction in virus-induced cytopathic effect after 3 days by MTS assay"}, "[8]": {"test": "Inhibition of Rhinovirus B42 capsid infected in human HeLa Rh cells assessed as reduction in virus-induced cytopathic effect after 3 days by MTS assay"}},
  "data": [
    {"smiles": "COC(=O)c1ccc(CC(O)c2ccc(-c3ccncc3)cc2)c([N+](=O)[O-])c1", "note": "(stereo not given)", "values": [
      {"measurement": "EC50", "setting": "[1]", "value": 6400, "unit": "nM"}
    ]},
    {"smiles": "Cn1cc(-c2ccc(C[C@H](O)c3ccc(-n4cccn4)cc3)c([N+](=O)[O-])c2)cn1", "values": [
      {"measurement": "EC50", "setting": "[2]", "value": 17, "unit": "nM"},
      {"measurement": "EC50", "setting": "[3]", "value": "> 128000", "unit": "nM"},
      {"measurement": "EC50", "setting": "[1]", "value": 35, "unit": "nM"},
      {"measurement": "EC50", "setting": "[4]", "value": "> 128000", "unit": "nM"},
      {"measurement": "EC50", "setting": "[5]", "value": "> 128000", "unit": "nM"},
      {"measurement": "EC50", "setting": "[6]", "value": 2400, "unit": "nM"},
      {"measurement": "EC50", "setting": "[7]", "value": "> 128000", "unit": "nM"},
      {"measurement": "EC50", "setting": "[8]", "value": "> 128000", "unit": "nM"}
    ]},
    {"smiles": "Cc1cc(CCCOc2c(C)cc(-c3noc(C(F)(F)F)n3)cc2C)on1", "note": "[3-(3,5-dimethyl-4-(3-(3-methylisoxazol-5-yl)propoxy)phenyl)-5-(trifluoromethyl)-1,2,4-oxadiazole]", "values": [
      {"measurement": "EC50", "setting": "[2]", "value": 167, "unit": "nM"},
      {"measurement": "EC50", "setting": "[3]", "value": 15, "unit": "nM"},
      {"measurement": "EC50", "setting": "[1]", "value": 30, "unit": "nM"},
      {"measurement": "EC50", "setting": "[4]", "value": 15, "unit": "nM"},
      {"measurement": "EC50", "setting": "[5]", "value": 490, "unit": "nM"},
      {"measurement": "EC50", "setting": "[6]", "value": 4, "unit": "nM"},
      {"measurement": "EC50", "setting": "[7]", "value": 11, "unit": "nM"},
      {"measurement": "EC50", "setting": "[8]", "value": "> 128000", "unit": "nM"}
    ]},
    {"smiles": "Cn1cc(-c2ccc(CC(O)c3ccc(-n4cncn4)cc3)c([N+](=O)[O-])c2)cn1", "note": "(stereo not given)", "values": [
      {"measurement": "EC50", "setting": "[1]", "value": 180, "unit": "nM"}
    ]},
    {"smiles": "O=[N+]([O-])c1cc(Br)ccc1CC(O)c1ccc(-n2cccn2)cc1", "note": "(stereo not given)", "values": [
      {"measurement": "EC50", "setting": "[1]", "value": 250, "unit": "nM"}
    ]},
    {"smiles": "Cc1noc(C)c1-c1ccc(CC(O)c2ccc(-n3cncn3)cc2)c([N+](=O)[O-])c1", "note": "(stereo not given)", "values": [
      {"measurement": "EC50", "setting": "[1]", "value": "> 247000", "unit": "nM"}
    ]},
    {"smiles": "O=[N+]([O-])c1cc(Br)ccc1CC(O)c1ccc(-n2cncn2)cc1", "note": "(stereo not given)", "values": [
      {"measurement": "EC50", "setting": "[1]", "value": 250, "unit": "nM"}
    ]},
    {"smiles": "Cn1nc(C(F)(F)F)cc1-c1ccc(CC(O)c2ccc(-n3cccn3)cc2)c([N+](=O)[O-])c1", "note": "(stereo not given)", "values": [
      {"measurement": "EC50", "setting": "[1]", "value": 500, "unit": "nM"}
    ]},
    {"smiles": "O=[N+]([O-])c1cc(F)ccc1CC(O)c1ccc(-n2cccn2)cc1", "note": "(stereo not given)", "values": [
      {"measurement": "EC50", "setting": "[1]", "value": 8700, "unit": "nM"}
    ]},
    {"smiles": "O=[N+]([O-])c1cc(Br)ccc1CC(O)c1ccc(-c2ccncc2)cc1", "note": "(stereo not given)", "values": [
      {"measurement": "EC50", "setting": "[1]", "value": 590, "unit": "nM"}
    ]},
    {"smiles": "Cn1nc(C(F)(F)F)cc1-c1ccc(CC(O)c2ccc(-c3ccncc3)cc2)c([N+](=O)[O-])c1", "note": "(stereo not given)", "values": [
      {"measurement": "EC50", "setting": "[1]", "value": 1000, "unit": "nM"}
    ]},
    {"smiles": "Cn1cc(-c2ccc(CC(O)c3ccc(-n4cccn4)cc3)c([N+](=O)[O-])c2)cn1", "note": "(stereo not given)", "values": [
      {"measurement": "EC50", "setting": "[1]", "value": 200, "unit": "nM"}
    ]},
    {"smiles": "Cn1cc(-c2ccc(C[C@H](O)c3ccc(-n4cncn4)cc3)c([N+](=O)[O-])c2)cn1", "values": [
      {"measurement": "EC50", "setting": "[2]", "value": 50, "unit": "nM"},
      {"measurement": "EC50", "setting": "[3]", "value": "> 128000", "unit": "nM"},
      {"measurement": "EC50", "setting": "[1]", "value": 60, "unit": "nM"},
      {"measurement": "EC50", "setting": "[4]", "value": "> 128000", "unit": "nM"},
      {"measurement": "EC50", "setting": "[5]", "value": "> 128000", "unit": "nM"},
      {"measurement": "EC50", "setting": "[6]", "value": "> 128000", "unit": "nM"},
      {"measurement": "EC50", "setting": "[7]", "value": "> 128000", "unit": "nM"},
      {"measurement": "EC50", "setting": "[8]", "value": "> 128000", "unit": "nM"}
    ]},
    {"smiles": "O=[N+]([O-])c1cc(Cl)ccc1CC(O)c1ccc(-n2cccn2)cc1", "note": "(stereo not given)", "values": [
      {"measurement": "EC50", "setting": "[1]", "value": 128, "unit": "nM"}
    ]},
    {"smiles": "Cn1cc(-c2ccc(C[C@@H](O)c3ccc(-n4cncn4)cc3)c([N+](=O)[O-])c2)cn1", "values": [
      {"measurement": "EC50", "setting": "[2]", "value": "> 20000", "unit": "nM"},
      {"measurement": "EC50", "setting": "[3]", "value": "> 128000", "unit": "nM"},
      {"measurement": "EC50", "setting": "[1]", "value": "> 128000", "unit": "nM"},
      {"measurement": "EC50", "setting": "[4]", "value": "> 128000", "unit": "nM"},
      {"measurement": "EC50", "setting": "[5]", "value": "> 128000", "unit": "nM"},
      {"measurement": "EC50", "setting": "[6]", "value": 1500, "unit": "nM"},
      {"measurement": "EC50", "setting": "[7]", "value": "> 128000", "unit": "nM"},
      {"measurement": "EC50", "setting": "[8]", "value": "> 128000", "unit": "nM"}
    ]},
    {"smiles": "Cn1cc(-c2ccc(C[C@@H](O)c3ccc(-n4cccn4)cc3)c([N+](=O)[O-])c2)cn1", "values": [
      {"measurement": "EC50", "setting": "[2]", "value": "> 128000", "unit": "nM"},
      {"measurement": "EC50", "setting": "[3]", "value": "> 128000", "unit": "nM"},
      {"measurement": "EC50", "setting": "[1]", "value": 2500, "unit": "nM"},
      {"measurement": "EC50", "setting": "[4]", "value": "> 128000", "unit": "nM"},
      {"measurement": "EC50", "setting": "[5]", "value": "> 128000", "unit": "nM"},
      {"measurement": "EC50", "setting": "[6]", "value": 190, "unit": "nM"},
      {"measurement": "EC50", "setting": "[7]", "value": "> 128000", "unit": "nM"},
      {"measurement": "EC50", "setting": "[8]", "value": "> 128000", "unit": "nM"}
    ]},
    {"smiles": "Cc1noc(C)c1-c1ccc(CC(O)c2ccc(-n3cccn3)cc2)c([N+](=O)[O-])c1", "note": "(stereo not given)", "values": [
      {"measurement": "EC50", "setting": "[1]", "value": "> 247000", "unit": "nM"}
    ]},
    {"smiles": "O=[N+]([O-])c1cc(-c2ccco2)ccc1CC(O)c1ccc(-c2ccncc2)cc1", "note": "(stereo not given)", "values": [
      {"measurement": "EC50", "setting": "[1]", "value": 1200, "unit": "nM"}
    ]},
    {"smiles": "O=[N+]([O-])c1cc(-c2cccs2)ccc1CC(O)c1ccc(-c2ccncc2)cc1", "note": "(stereo not given)", "values": [
      {"measurement": "EC50", "setting": "[1]", "value": 1300, "unit": "nM"}
    ]},
    {"smiles": "O=[N+]([O-])c1cc(-c2cncs2)ccc1CC(O)c1ccc(-n2cncn2)cc1", "note": "(stereo not given)", "values": [
      {"measurement": "EC50", "setting": "[1]", "value": 400, "unit": "nM"}
    ]}
  ]
}
